From US12583825B2, “Benzo[h]quinazolin-4-amine and thieno[3,2-h]quinazolin-4-amine derivatives for the treatment of cancer” (Redona Therapeutics, Inc., priority 2020, dated 2026) come the findings set out here.

One assay deals with MDA-MB-231 cells. As to the kind of experiment: MDA-MB-231 proliferation assay. The format is cell-based. As to conditions: Homo sapiens, 72 hours, YO-PRO-1 readout. The protocol:
MDA-MB-231 Proliferation Assay
MDA-MB-231 cells were cultivated in DMEM High Glucose (4.5 g/L) with L-Glutamine (BioConcept, cat. no. 1-26F03-I) supplemented with 1% Na-pyruvate (Sigma, cat. no. S8636), 1% Penicillin-Streptomycin (BioConcept, cat. no. 4-01F00H), and 10% FBS (Sigma, cat. no. F9665) using standard techniques. Cells were seeded in black, clear-bottom 384 well plates for tissue culture (Greiner Bio-One, cat. no. 781091) at a density of 750 cells per well in 20 μL medium and the plates were incubated overnight at 37° C. with 5% CO2 prior to treatment. Experimental compounds were serially diluted in DMSO to 200× the desired final concentrations. The solutions were then diluted 1:40 with culture medium and 5 μL aliquots were mixed into the wells containing the cells. The final concentration of DMSO was 0.5%. The plates were incubated for 72 hours and cell numbers were then measured using YO-PRO™-1 Iodide (ThermoFisher Scientific, cat. no. Y3603) essentially as recommended by the manufacturer. […] The plates were incubated at room temperature in the dark for 30 minutes. Fluorescence intensity signals were then measured on a Synergy 4 reader (BioTek) using 485/20 nm and 530/25 nm filters for the excitation and emission, respectively. Relative proliferation values were calculated by normalizing the raw data using DMSO-treated cells (100% proliferation) and the signals obtained from cells that were evaluated at the time of compound addition (0% proliferation). The concentration-response data were fitted to a sigmoidal 4-parameter logistic model with the maximum constrained to 100%.

The target in another assay is T1, recombinant human CLK3 (Homo sapiens, UniProt P49761).
T1 construct: purchased Thermo Fisher Scientific PV3826
As to the kind of experiment: CLK3 kinase assay (LANCE Ultra). The following applies: 0.5 nM CLK3, 300 μM ATP, 3 hours at 30° C. Format: biochemical. The protocol:
CLK3 kinase activity was measured using the LANCE® Ultra technology (PerkinElmer) essentially as recommended by the supplier. Briefly, 2.5 μL of test sample at 4× the desired final concentration in 4% DMSO were dispensed into white, low volume, round bottom, 384 well plates (Corning, cat. no. 4512). 5 μL of a mixture containing recombinant human CLK3 (Thermo Fisher Scientific, cat. no. PV3826) and the labeled peptide substrate ULight™-CREBtide (PerkinElmer, cat. no. TRF0107) prepared in 1.33× kinase buffer (Thermo Fisher Scientific, cat. no. PV3189) were then added. Finally, the reactions were started by adding 2.5 μL of a 4× solution of ATP in kinase buffer. The plates were sealed with adhesive foils and incubated for 3 hours at 30° C. in the dark. The final concentrations of CLK3, ULight™—CREBtide, and ATP were 0.5 nM, 50 nM, and 300 μM, respectively. 5 μL of 40 mM EDTA were then added to terminate the reactions. The Eu-anti-phospho-CREB antibody (PerkinElmer, cat. no. TRF0200) diluted in LANCE® detection buffer (PerkinElmer, cat. no. CR97) was then added to a final concentration of 2 nM and the reactions were incubated for 1 hour at room temperature in the dark. The signals were measured using a Synergy 4 reader (BioTek) with a 320/80 nm filter for the excitation and 620/10 nm and 665/8 nm filters for the donor and acceptor emission, respectively. […] IC50 values were calculated by fitting the concentration-response data to a sigmoidal 4-parameter logistic model.
On the technique in general: In TR-FRET formats the signal depends on donor and acceptor labels being close together.

pIC50: −log10 of the molar value. Some results are limits rather than exact numbers.

T1 sequence (P49761 whole entry): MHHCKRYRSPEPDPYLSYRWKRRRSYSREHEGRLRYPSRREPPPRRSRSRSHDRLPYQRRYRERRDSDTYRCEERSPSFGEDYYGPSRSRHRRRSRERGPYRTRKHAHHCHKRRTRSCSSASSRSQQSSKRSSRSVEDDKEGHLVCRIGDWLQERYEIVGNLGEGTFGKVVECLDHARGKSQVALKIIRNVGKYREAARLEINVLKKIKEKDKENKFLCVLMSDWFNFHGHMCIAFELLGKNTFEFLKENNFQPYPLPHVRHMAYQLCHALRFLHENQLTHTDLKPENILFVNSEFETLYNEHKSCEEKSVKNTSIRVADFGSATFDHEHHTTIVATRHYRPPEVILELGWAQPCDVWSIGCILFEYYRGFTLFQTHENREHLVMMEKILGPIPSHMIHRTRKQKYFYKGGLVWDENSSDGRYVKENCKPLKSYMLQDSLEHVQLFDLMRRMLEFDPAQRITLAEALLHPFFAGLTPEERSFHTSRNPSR

As usually defined, the GI50 is the concentration at which growth is held to half of that of the control. As usually defined, the pIC50 is −log10 of the IC50, conventionally taken in molar units. On to `CO/N=C1/c2c(ccc(OC)c2Cl)-c2ncnc(N)c2C1(C)C` [Example 48, (6E)-7-chloro-8-methoxy-6-methoxyimino-5,5-dimethyl-benzo[h]quinazolin-4-amine], for which the GI50 in the assay on MDA-MB-231 cells is > 2000 nM. On recombinant human CLK3, the pIC50 was 8.31.

As to `CO/N=C1/c2c(ccc(OC)c2N)-c2ncnc(N)c2C1(C)C` [Example 49, (6E)-8-methoxy-6-methoxyimino-5,5-dimethyl-benzo[h]quinazoline-4,7-diamine], in the assay on MDA-MB-231 cells, the GI50 is > 2000 nM. The pIC50 on recombinant human CLK3 was 7.84.

`COc1ccc2c(c1)/C(=N\OC[C@@H]1CN(C)C(=O)O1)C(C)(C)c1c(N)ncnc1-2` [Example 50, (5S)-5-[[(Z)-(4-amino-8-methoxy-5,5-dimethyl-benzo[h]quinazolin-6-ylidene)amino]oxymethyl]-3-methyl-oxazolidin-2-one]: the GI50 in the assay on MDA-MB-231 cells worked out at 761 nM. The pIC50 at recombinant human CLK3 was > 8.82.

Take `CC1(C)/C(=N/OC[C@@H]2CNC(=O)O2)c2cc(Br)ccc2-c2ncnc(N)c21` [Example 51, (5S)-5-[[(Z)-(4-amino-8-bromo-5,5-dimethyl-benzo[h]quinazolin-6-ylidene)amino]oxymethyl]oxazolidin-2-one]: in the assay with MDA-MB-231 cells, the GI50 was found to be 511 nM. For the same molecule, at recombinant human CLK3, the pIC50 is 8.14.

For the molecule `CN1C[C@@H](CO/N=C2\c3cc(Cl)ccc3-c3ncnc(N)c3C2(C)C)OC1=O` [Example 52, (5S)-5-[[(Z)-(4-amino-8-chloro-5,5-dimethyl-benzo[h]quinazolin-6-ylidene)amino]oxymethyl]-3-methyl-oxazolidin-2-one], the GI50 with MDA-MB-231 cells is 445 nM. Moreover, the pIC50 on recombinant human CLK3 was > 8.82.

As for `CN1C[C@@H](CO/N=C2\c3cc(Br)ccc3-c3ncnc(N)c3C2(C)C)OC1=O` [Example 53, (5S)-5-[[(Z)-(4-amino-8-bromo-5,5-dimethyl-benzo[h]quinazolin-6-ylidene)amino]oxymethyl]-3-methyl-oxazolidin-2-one], in the assay with MDA-MB-231 cells, the GI50 came to 194 nM. Also, the pIC50 at recombinant human CLK3 is > 8.82.

Consider `CC1(C)/C(=N/OCCC#N)c2cc(O[C@H]3CC[C@H](N)CC3)ccc2-c2ncnc(N)c21` [Example 55, 3-[(Z)-[4-amino-8-(trans-4-aminocyclohexoxy)-5,5-dimethyl-benzo[h]quinazolin-6-ylidene]amino]oxypropanenitrile], for which the GI50 in the assay with MDA-MB-231 cells was determined as 169 nM. On recombinant human CLK3, the pIC50 was 7.81.

Take `CN1C[C@@H](CO/N=C2\c3cc(O[C@H]4CC[C@H](N)CC4)ccc3-c3ncnc(N)c3C2(C)C)OC1=O` [Example 56, (5S)-5-[[(Z)-[4-amino-8-(trans-4-aminocyclohexoxy)-5,5-dimethyl-benzo[h]quinazolin-6-ylidene]amino]oxymethyl]-3-methyl-oxazolidin-2-one]: the GI50 in the assay with MDA-MB-231 cells stood at 332 nM. Further, the pIC50 at recombinant human CLK3 is > 8.82.

With `CO/N=C1\c2cc(O[C@@H]3CC[C@@H](N)[C@@H](F)C3)ccc2-c2ncnc(N)c2C1(C)C` [Example 57, (6Z)-6-methoxyimino-5,5-dimethyl-8-[-(1R,3S,4R)-4-amino-3-fluoro-cyclohexoxy]benzo[h]quinazolin-4-amine], the 50% growth inhibitory concentration (GI50) in the assay with MDA-MB-231 cells was determined as 207 nM. The pIC50 at recombinant human CLK3 is 8.56.

Take `COc1ccc2c(c1)/C(=N\OCCN)C(C)(C)c1c(N)ncnc1-2` [Example 58, (6Z)-6-(2-aminoethoxyimino)-8-methoxy-5,5-dimethyl-benzo[h]quinazolin-4-amine]: the GI50 in the assay on MDA-MB-231 cells was > 2000 nM. For the same molecule, the pIC50 at recombinant human CLK3 is 7.04.

`COc1ccc2c(c1)/C(=N\OCCCN)C(C)(C)c1c(N)ncnc1-2` [Example 59, (6Z)-6-(3-aminopropoxyimino)-8-methoxy-5,5-dimethyl-benzo[h]quinazolin-4-amine]: the GI50 in the assay on MDA-MB-231 cells was > 2000 nM. Further, the pIC50 at recombinant human CLK3 is 6.58.

Regarding `CC1(C)/C(=N\OCCC#N)c2cc(O[C@H]3CC[C@H](N)CC3)ccc2-c2ncnc(N)c21` [Example 60, 3-[(E)-[4-amino-8-(trans-4-aminocyclohexoxy)-5,5-dimethyl-benzo[h]quinazolin-6-ylidene]amino]oxypropanenitrile], the GI50 in the assay with MDA-MB-231 cells is > 2000 nM. Also, the pIC50 on recombinant human CLK3 is 6.94.

On to `CO/N=C1\c2cc(O)ccc2-c2ncnc(N)c2C1(C)C` [Example 61, (6Z)-4-amino-6-methoxyimino-5,5-dimethyl-benzo[h]quinazolin-8-ol], for which, in the assay with MDA-MB-231 cells, the GI50 was > 2000 nM. Further, the pIC50 on recombinant human CLK3 is 7.27.

With `CO/N=C1\c2cc(OC3CCNCC3)ccc2-c2ncnc(N)c2C1(C)C` [Example 66, (6Z)-6-methoxyimino-5,5-dimethyl-8-(4-piperidyloxy)benzo[h]quinazolin-4-amine], the GI50 in the assay with MDA-MB-231 cells amounted to 1750 nM. Moreover, the pIC50 at recombinant human CLK3 was 7.89.

As to `COc1ccc2c(c1)/C(=N\OC[C@@H]1CNC(=O)C1)C(C)(C)c1c(N)ncnc1-2` [Example 72, (4S)-4-[[(Z)-(4-amino-8-methoxy-5,5-dimethyl-benzo[h]quinazolin-6-ylidene)amino]oxymethyl]pyrrolidin-2-one], in the assay with MDA-MB-231 cells, the GI50 is > 2000 nM. For the same molecule, the pIC50 at recombinant human CLK3 was 7.10.

With `COc1ccc2c(c1)/C(=N\OC[C@H]1CNC(=O)C1)C(C)(C)c1c(N)ncnc1-2` [Example 73, (4R)-4-[[(Z)-(4-amino-8-methoxy-5,5-dimethyl-benzo[h]quinazolin-6-ylidene)amino]oxymethyl]pyrrolidin-2-one], the GI50 with MDA-MB-231 cells was > 2000 nM. In addition, on recombinant human CLK3, the pIC50 was 6.41.

As to `CO/N=C1\c2cc(C[C@H]3CC[C@@H](N)CC3)ccc2-c2ncnc(N)c2C1(C)C` [Example 75, (6Z)-8-[(cis-4-aminocyclohexyl)methyl]-6-methoxyimino-5,5-dimethyl-benzo[h]quinazolin-4-amine], in the assay with MDA-MB-231 cells, the GI50 turned out to be 472 nM. Besides, the pIC50 at recombinant human CLK3 was 8.47.

`COc1ccc2c(c1)/C(=N\OC[C@H]1CC(=O)N(C)C1)C(C)(C)c1c(N)ncnc1-2` [Example 76, (4S)-4-[[(Z)-(4-amino-8-methoxy-5,5-dimethyl-benzo[h]quinazolin-6-ylidene)amino]oxymethyl]-1-methyl-pyrrolidin-2-one]: in the assay with MDA-MB-231 cells, the 50% growth inhibitory concentration (GI50) was > 2000 nM. Besides, the negative logarithm of the IC50 (pIC50) on recombinant human CLK3 was > 7.39.

For `CO/N=C1\c2cc(OC)cc(F)c2-c2ncnc(N)c2C1(C)C` [Example 77, (6Z)-10-fluoro-8-methoxy-6-methoxyimino-5,5-dimethyl-benzo[h]quinazolin-4-amine], the GI50 with MDA-MB-231 cells is > 2000 nM. The pIC50 on recombinant human CLK3 is 7.07.

As to `C[C@@H](O)CO/N=C1\c2cc(O[C@H]3CC[C@H](N)CC3)ccc2-c2ncnc(N)c2C1(C)C` [Example 78, (2R)-1-[(Z)-[4-amino-8-(trans-4-aminocyclohexoxy)-5,5-dimethyl-benzo[h]quinazolin-6-ylidene]amino]oxypropan-2-ol], the GI50 in the assay with MDA-MB-231 cells was > 2000 nM. Further, at recombinant human CLK3, the pIC50 is 7.18.

Consider `COCCO/N=C1\c2cc(Br)ccc2-c2ncnc(N)c2C1(C)C` [Example 80, (6Z)-8-bromo-6-(2-methoxyethoxyimino)-5,5-dimethyl-benzo[h]quinazolin-4-amine], for which the GI50 in the assay on MDA-MB-231 cells was > 2000 nM. Further, the negative-log IC50 (pIC50) at recombinant human CLK3 was 7.29.

Consider `CC1(C)/C(=N/OCCC#N)c2cc(Br)ccc2-c2ncnc(N)c21` [Example 81, 3-[(Z)-(4-amino-8-bromo-5,5-dimethyl-benzo[h]quinazolin-6-ylidene)amino]oxypropanenitrile], for which the concentration for 50% growth inhibition (GI50) in the assay with MDA-MB-231 cells is > 2000 nM. Besides, on recombinant human CLK3, the pIC50 was 7.80.

With `CC1(C)/C(=N/O)c2cc(Br)ccc2-c2ncnc(N)c21` [Example 84, (Z)-4-amino-8-bromo-5,5-dimethyl-benzo[h]quinazolin-6-one oxime], the 50% growth inhibitory concentration (GI50) in the assay on MDA-MB-231 cells was > 2000 nM. Further, at recombinant human CLK3, the pIC50 was 7.97.

For `CC1(C)/C(=N\O)c2cc(Br)ccc2-c2ncnc(N)c21` [Example 85, (E)-4-amino-8-bromo-5,5-dimethyl-benzo[h]quinazolin-6-one oxime], the GI50 in the assay on MDA-MB-231 cells was > 2000 nM. Moreover, the negative-log IC50 (pIC50) at recombinant human CLK3 is 6.90.

For `CC1(C)/C(=N/OCCO)c2cc(Br)ccc2-c2ncnc(N)c21` [Example 86, 2-[(Z)-(4-amino-8-bromo-5,5-dimethyl-benzo[h]quinazolin-6-ylidene)amino]oxyethanol], in the assay on MDA-MB-231 cells, the GI50 is > 2000 nM. At recombinant human CLK3, the pIC50 was 7.20.
